Laboratory results reported in patent US9156877B2, “17-hydroxy-17-pentafluorethyl-estra-4,9(10)-dien-11-benzylidene derivatives, methods for the production thereof and use thereof for treating diseases” (Bayer Intellectual Property GmbH, priority 2009, dated 2015).
Converted amounts (≈) assume the structure as drawn.

Tests used:
[1] = target: T1, human progesterone receptor B (Homo sapiens, UniProt P06401); test: Progesterone receptor-antagonistic action in stably transfected SK-N-MC cells with MMTV-LUC reporter (PR-B); assay type: cell-based; conditions: antagonistic potency against 0.1 nmol/l promegestone, 24 hours, luciferase
T1 construct: expressed in transfected cells; host or cells: SK-N-MC human neuroblastoma cells, stably transfected with pRChPR-B-neo and pMMTV-LUC
T1 sequence (P06401 1-933): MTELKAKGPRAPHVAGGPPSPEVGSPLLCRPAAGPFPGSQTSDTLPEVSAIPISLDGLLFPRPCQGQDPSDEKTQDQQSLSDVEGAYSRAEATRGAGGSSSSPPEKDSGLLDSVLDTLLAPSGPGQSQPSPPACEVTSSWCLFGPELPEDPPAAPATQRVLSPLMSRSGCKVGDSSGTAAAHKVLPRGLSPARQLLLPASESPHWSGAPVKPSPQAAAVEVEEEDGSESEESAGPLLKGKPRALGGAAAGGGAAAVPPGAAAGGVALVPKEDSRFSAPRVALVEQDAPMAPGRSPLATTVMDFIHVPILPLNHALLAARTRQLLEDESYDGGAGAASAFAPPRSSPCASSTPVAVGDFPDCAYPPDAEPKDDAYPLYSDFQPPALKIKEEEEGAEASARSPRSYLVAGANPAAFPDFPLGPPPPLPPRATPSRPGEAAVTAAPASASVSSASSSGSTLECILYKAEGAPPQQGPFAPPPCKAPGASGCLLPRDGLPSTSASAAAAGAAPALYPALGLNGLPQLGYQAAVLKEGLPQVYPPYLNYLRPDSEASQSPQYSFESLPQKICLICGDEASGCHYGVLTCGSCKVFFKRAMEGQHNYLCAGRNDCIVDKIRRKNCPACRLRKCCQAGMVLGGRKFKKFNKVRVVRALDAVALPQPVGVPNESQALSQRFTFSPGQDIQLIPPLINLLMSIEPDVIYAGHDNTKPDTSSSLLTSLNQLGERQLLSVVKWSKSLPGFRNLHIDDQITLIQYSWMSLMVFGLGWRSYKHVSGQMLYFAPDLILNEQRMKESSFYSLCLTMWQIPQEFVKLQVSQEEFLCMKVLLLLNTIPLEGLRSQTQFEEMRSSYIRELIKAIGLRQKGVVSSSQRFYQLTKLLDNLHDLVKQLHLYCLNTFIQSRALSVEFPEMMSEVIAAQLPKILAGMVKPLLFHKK
How it was run: (§1)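 SK-N-MC neuroblastoma cells stably expressing human PR-A or PR-B plus MMTV-LUC reporter, treated 24 h with test compound (0.01 nmol/l–[…]). Antagonist mode used co-treatment with 0.1 nmol/l promegestone; luciferase in lysates read as RLU, expressed as % efficacy and IC50/EC50.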

[2] = Metabolic stability in human liver microsomes; assay type: in vitro ADME; conditions: for Predicted clearance [l/h/kg] Human: 1 μM, well-stirred model
Procedure: (§2) Determination of Metabolic Stability in Human and Rat Liver Microsomes
Isolated human liver microsomes (HLM) were used to assess the metabolic stability of compounds of general formula I.
(§3) The incubations were conducted with 2.4 ml of HLM solution (protein content 0.5 mg/ml), 30 μl of the test compound (final concentration 1 μM) and 0.6 ml of the cofactor mixture (═NADPH-generating system composed of 3 IU glucose-6-phosphate dehydrogenase, 14.6 mg glucose-6-phosphate, 1.2 mg NADP) at 37° C. in 100 mM phosphate buffer at pH 7.4. Samples were taken at 6 time points (2-60 min) and precipitated with an equal volume of methanol, and the recovery of the test substances used in the supernatant was determined by LC-MS/MS analysis. The half-life of substance degradation determined therefrom was used to calculate what is called the intrinsic clearance of the substance in the liver microsome preparation. […] In addition, under the assumptions that (i) absorption of the test substance is 100%, and (ii) the first pass is completely reflected by liver microsome metabolism, a maximum oral bioavailability (Fmax) was calculated.

[3] = Metabolic stability in rat liver microsomes; assay type: in vitro ADME; conditions: for Predicted clearance [l/h/kg] Rat: well-stirred model
Procedure: as §2, §3

[4] = Solubility in aqueous medium at pH 7.4; assay type: physicochemical; conditions: aqueous medium, pH 7.4, aqueous buffer
From the text: In addition, some compounds have an unusually good solubility, for this active ingredient class, in aqueous medium under physiological conditions (Table 2).

[5] = target: T2, human progesterone receptor A (Homo sapiens, UniProt P06401); test: Progesterone receptor-antagonistic action in stably transfected SK-N-MC cells with MMTV-LUC reporter (PR-A); assay type: cell-based; conditions: antagonistic potency against 0.1 nmol/l promegestone, 24 hours, luciferase
T2 construct: expressed in transfected cells; host or cells: SK-N-MC human neuroblastoma cells, stably transfected with pRChPR-A-neo and pMMTV-LUC
T2 sequence (P06401 1-769 isoform P06401-2): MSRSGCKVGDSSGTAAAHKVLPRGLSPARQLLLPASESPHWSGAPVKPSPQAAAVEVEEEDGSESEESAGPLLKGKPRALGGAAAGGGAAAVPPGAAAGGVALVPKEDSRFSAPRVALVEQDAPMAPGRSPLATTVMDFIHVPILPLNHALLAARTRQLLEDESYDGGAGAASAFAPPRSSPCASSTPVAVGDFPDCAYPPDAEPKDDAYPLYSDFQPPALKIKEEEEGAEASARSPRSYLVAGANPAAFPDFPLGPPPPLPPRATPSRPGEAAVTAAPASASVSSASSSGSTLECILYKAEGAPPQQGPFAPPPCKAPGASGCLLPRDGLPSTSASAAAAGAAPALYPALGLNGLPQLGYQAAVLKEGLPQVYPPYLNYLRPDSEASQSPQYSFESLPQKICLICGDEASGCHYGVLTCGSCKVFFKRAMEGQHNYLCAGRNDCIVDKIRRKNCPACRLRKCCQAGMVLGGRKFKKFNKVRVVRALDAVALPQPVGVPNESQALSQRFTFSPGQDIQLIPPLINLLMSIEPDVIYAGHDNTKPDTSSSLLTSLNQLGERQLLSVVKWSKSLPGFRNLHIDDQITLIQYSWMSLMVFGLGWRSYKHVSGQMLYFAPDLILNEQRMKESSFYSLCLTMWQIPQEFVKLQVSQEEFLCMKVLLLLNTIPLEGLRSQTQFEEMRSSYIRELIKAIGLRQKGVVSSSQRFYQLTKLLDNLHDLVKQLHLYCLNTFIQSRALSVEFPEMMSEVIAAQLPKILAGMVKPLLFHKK
How it was run: as §1

SMILES | IC50 [1] | Predicted Fmax [%] (maximum oral bioavailability) Human [2] | Predicted clearance [l/h/kg] Human [2] | Predicted Fmax [%] (maximum oral bioavailability) Rat [3] | Predicted clearance [l/h/kg] Rat [3] | solubility [4] | IC50 [5]
C[C@]12C[C@H](c3ccc(/C=C/C#N)cc3)C3=C4CCC(=O)C=C4CC[C@H]3[C@@H]1CC[C@@]2(O)C(F)(F)C(F)(F)F [Example 14, (E)-3-[4-((8S,11R,13S,14S,17S)-17-hydroxy-13-methyl-3-oxo-17-pentafluoroethyl-2,3,6,7,8,11,12,13,14,15,16,17-dodecahydro-1H-cyclopenta[a]phenanthren-11-yl)phenyl]acrylonitrile] | 0.011 nM | 31% | 0.9 L/h/kg | 75% | 1.1 L/h/kg | 9 µg/mL (≈ 17.4 µM) | 0.011 nM
C[C@]12C[C@H](c3cccc(/C=C/c4cccnc4)c3)C3=C4CCC(=O)C=C4CC[C@H]3[C@@H]1CC[C@@]2(O)C(F)(F)C(F)(F)F [Example 22, (8S,11R,13S,14S,17S)-17-hydroxy-13-methyl-17-pentafluoroethyl-11-[3-((E)-2-pyridin-3-ylvinyl)phenyl]-1,2,6,7,8,11,12,13,14,15,16,17-dodecahydrocyclopenta[a]phenanthren-3-one] | 1 nM | 41% | 0.8 L/h/kg | 77% | 1.0 L/h/kg | 6 µg/mL (≈ 10.5 µM) | 0.3 nM
C[C@]12C[C@H](c3cccc(/C=C/c4ccncc4)c3)C3=C4CCC(=O)C=C4CC[C@H]3[C@@H]1CC[C@@]2(O)C(F)(F)C(F)(F)F [Example 23, (8S,11R,13S,14S,17S)-17-hydroxy-13-methyl-17-pentafluoroethyl-11-[3-((E)-2-pyridin-4-ylvinyl)phenyl]-1,2,6,7,8,11,12,13,14,15,16,17-dodecahydrocyclopenta[a]phenanthren-3-one] | 0.2 nM | 67% | 0.4 L/h/kg | 95% | 0.2 L/h/kg | 8 µg/mL (≈ 14 µM) | 0.2 nM
C[C@]12C[C@H](c3ccc(/C=C/c4ccncc4)cc3)C3=C4CCC(=O)C=C4CC[C@H]3[C@@H]1CC[C@@]2(O)C(F)(F)C(F)(F)F [Example 8, (8S,11R,13S,14S,17S)-17-hydroxy-13-methyl-17-pentafluoroethyl-11-[4-((E)-2-pyridin-4-ylvinyl)phenyl]-1,2,6,7,8,11,12,13,14,15,16,17-dodecahydrocyclopenta[a]phenanthren-3-one] | 0.077 nM | 87% | 0.18 L/h/kg | 92% | 0.3 L/h/kg | 7 µg/mL (≈ 12.3 µM) | 0.012 nM
CCO/N=C/c1ccc([C@H]2C[C@@]3(C)[C@@H](CC[C@@]3(O)C(F)(F)C(F)(F)F)[C@@H]3CCC4=CC(=O)CCC4=C32)cc1 [Example 36, 4-((8S,11R,13S,14S,17S)-17-hydroxy-13-methyl-3-oxo-17-pentafluoroethyl-2,3,6,7,8,11,12,13,14,15,16,17-dodecahydro-1H-cyclopenta[a]phenanthren-11-yl)benzaldehyde O-ethyl oxime] | 0.08 nM | 72% | 0.36 L/h/kg | 82% | 0.8 L/h/kg | 5 µg/mL (≈ 9.3 µM) | 0.08 nM
C[C@]12C[C@H](c3cccc(/C=C/c4ccccn4)c3)C3=C4CCC(=O)C=C4CC[C@H]3[C@@H]1CC[C@@]2(O)C(F)(F)C(F)(F)F [Example 21, (8S,11R,13S,14S,17S)-17-hydroxy-13-methyl-17-pentafluoroethyl-11-[3-((E)-2-pyridin-2-ylvinyl)phenyl]-1,2,6,7,8,11,12,13,14,15,16,17-dodecahydrocyclopenta[a]phenanthren-3-one] | 1 nM | 48% | 0.7 L/h/kg | 88% | 0.5 L/h/kg | 7 µg/mL (≈ 12.3 µM) | 0.9 nM
C[C@]12C[C@H](c3ccc(/C=C/CC(C#N)C#N)cc3)C3=C4CCC(=O)C=C4CCC3C1CC[C@@]2(O)C(F)(F)C(F)(F)F (stereo partly drawn) [Example 27, 2-{(E)-3-[4-((8S,11R,13S,14S,17S)-17-hydroxy-13-methyl-3-oxo-17-pentafluoroethyl-2,3,6,7,8,11,12,13,14,15,16,17-dodecahydro-1H-cyclopenta[a]phenanthren-11-yl)phenyl]allyl}malonitrile] | 0.1 nM | 26% | 0.98 L/h/kg | 79% | 0.9 L/h/kg | 10 µg/mL (≈ 17.5 µM) | 0.2 nM
Cc1nc2cc(/C=C/c3ccc([C@H]4C[C@@]5(C)[C@@H](CC[C@@]5(O)C(F)(F)C(F)(F)F)[C@@H]5CCC6=CC(=O)CCC6=C54)cc3)ccc2s1 [Example 10, (8S,11R,13S,14S,17S)-17-hydroxy-13-methyl-11-{4-[(E)-2-(2-methylbenzothiazol-5-yl)vinyl]phenyl}-17-pentafluoroethyl-1,2,6,7,8,11,12,13,14,15,16,17-dodecahydrocyclopenta[a]phenanthren-3-one] | 0.86 nM | 73% | 0.36 L/h/kg | 76% | 1.0 L/h/kg | 8 µg/mL (≈ 12.5 µM) | 0.2 nM
